Results from the supplement of paper PMC10307832.

Compound: COc1cc(Nc2ncc(F)c(Nc3ccc4c(n3)NC(=O)C(C)(C)O4)n2)cc(OC)c1OC [R406] + COc1cc2c(Oc3ccc(NC(=O)C4(C(=O)Nc5ccc(F)cc5)CC4)cc3F)ccnc2cc1OCCCN1CCOCC1 [Foretinib] (partner 0.25 µM)
Experiment: relative viability (nuclei count vs DMSO), 5 days (fraction); higher = more cells survive
Settings: first compound 0.08 µM
Outline: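 Lung cancer cell lines were seeded in 1536-well plates and dosed by pin tool the next day, with either a single drug or a fixed anchor-drug dose combined with five library-drug doses (not always all listed) spaced in √10 steps. Five days later, one step fixed the cells and stained their nuclei (final 0.05% Triton X-100, 1% formaldehyde, 1 ug/ml Hoechst), and nuclei were counted on 4× images. Relative viability is the nuclei count in treated wells divided by the count in vehicle wells, and each value is the median of duplicate plates.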

Row | Cell Line | relative viability
1 | LOU-NH91 | 0.918
2 | NCI-H1793 | 0.582
3 | NCI-H2405 | 0.961
4 | HOP-62 | 1.03
5 | LU99A | 0.801
6 | BEN | 0.884
7 | HARA | 0.867
8 | HCC-78 | 0.562
9 | NCI-H322M | 0.962
10 | LCLC-97TM1 | 0.89
11 | A-427 | 1.09
12 | NCI-H460 | 0.887
13 | NCI-H727 | 0.954
14 | NCI-H1734 | 0.812
15 | NCI-H2347 | 1.11
16 | NCI-H1395 | 1.03
17 | 201T | 1.13
18 | NCI-H1915 | 0.983
19 | HCC-827 | 0.991
20 | LXF-289 | 1.01
21 | NCI-H23 | 0.989
22 | NCI-H650 | 0.968
23 | CAL-12T | 1.03
24 | NCI-H1651 | 0.875
25 | EPLC-272H | 0.425
26 | NCI-H1355 | 0.973
27 | NCI-H3122 | 0.962
28 | NCI-H1437 | 1.22

Same assay, conditions: first compound 0.253 µM

Row | Cell Line | relative viability
29 | LOU-NH91 | 0.975
30 | NCI-H1793 | 0.641
31 | NCI-H2405 | 1.15
32 | HOP-62 | 1.28
33 | LU99A | 0.794
34 | BEN | 0.609
35 | HARA | 1.04
36 | HCC-78 | 0.602
37 | NCI-H322M | 0.917
38 | LCLC-97TM1 | 0.963
39 | A-427 | 1.35
40 | NCI-H460 | 1.13
41 | NCI-H727 | 0.841
42 | NCI-H1734 | 1.07
43 | NCI-H2347 | 1.09
44 | NCI-H1395 | 1.22
45 | 201T | 1.32
46 | NCI-H1915 | 1.16
47 | HCC-827 | 1.08
48 | LXF-289 | 1.03
49 | NCI-H23 | 1.05
50 | NCI-H650 | 1.17
51 | CAL-12T | 1.23
52 | NCI-H1651 | 0.83
53 | EPLC-272H | 0.617
54 | NCI-H1355 | 1.09
55 | NCI-H3122 | 0.959
56 | NCI-H1437 | 1.3

Same assay, conditions: first compound 0.8 µM

Row | Cell Line | relative viability
57 | LOU-NH91 | 0.918
58 | NCI-H1793 | 0.809
59 | NCI-H2405 | 1.11
60 | HOP-62 | 0.967
61 | LU99A | 0.914
62 | BEN | 0.691
63 | HARA | 1.05
64 | HCC-78 | 0.642
65 | NCI-H322M | 1.03
66 | LCLC-97TM1 | 0.965
67 | A-427 | 1.24
68 | NCI-H460 | 1.16
69 | NCI-H727 | 0.851
70 | NCI-H1734 | 0.997
71 | NCI-H2347 | 1.29
72 | NCI-H1395 | 1.03
73 | 201T | 1.21
74 | NCI-H1915 | 1.11
75 | HCC-827 | 1.05
76 | LXF-289 | 0.969
77 | NCI-H23 | 0.977
78 | NCI-H650 | 1.03
79 | CAL-12T | 1.22
80 | NCI-H1651 | 0.939
81 | EPLC-272H | 0.792
82 | NCI-H1355 | 1.15
83 | NCI-H3122 | 0.931
84 | NCI-H1437 | 1.26

Same assay, conditions: first compound 2.53 µM

Row | Cell Line | relative viability
85 | LOU-NH91 | 0.518
86 | NCI-H1793 | 0.464
87 | NCI-H2405 | 0.934
88 | HOP-62 | 1.26
89 | LU99A | 0.588
90 | BEN | 0.879
91 | HARA | 0.751
92 | HCC-78 | 0.57
93 | NCI-H322M | 0.547
94 | LCLC-97TM1 | 0.935
95 | A-427 | 0.983
96 | NCI-H460 | 1.07
97 | NCI-H727 | 0.752
98 | NCI-H1734 | 0.52
99 | NCI-H2347 | 0.61
100 | NCI-H1395 | 0.736
101 | 201T | 0.829
102 | HCC-827 | 0.81
103 | LXF-289 | 0.999
104 | NCI-H650 | 0.914
105 | CAL-12T | 1.09
106 | NCI-H1651 | 0.596
107 | EPLC-272H | 0.304
108 | NCI-H1355 | 0.833
109 | NCI-H1437 | 1.27

Same assay, conditions: first compound 8 µM

Row | Cell Line | relative viability
110 | LOU-NH91 | 0.475
111 | NCI-H1793 | 0.139
112 | NCI-H2405 | 0.775
113 | HOP-62 | 0.808
114 | LU99A | 0.345
115 | BEN | 0.578
116 | HARA | 0.218
117 | HCC-78 | 0.56
118 | NCI-H322M | 0.559
119 | LCLC-97TM1 | 0.327
120 | A-427 | 0.814
121 | NCI-H460 | 0.781
122 | NCI-H727 | 0.697
123 | NCI-H1734 | 0.448
124 | NCI-H2347 | 0.348
125 | NCI-H1395 | 0.632
126 | 201T | 0.708
127 | NCI-H1915 | 0.989
128 | HCC-827 | 0.157
129 | LXF-289 | 0.238
130 | NCI-H23 | 0.206
131 | NCI-H650 | 0.864
